target: Active Human ERK2 (hERK2) (Homo sapiens (Human), UniProt P28482); assay: Active Human ERK2 (hERK2) Activity Assay (IMAP-FP); assay type: biochemical; details: phosphorylated active hERK2, 30 μM ATP; average; read-out: ERK 2 Human average IC50
Procedure, shortened: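 Phosphorylation by activated human ERK2 (0.5 nM) at 30 μM ATP, peptide substrate 900 nM unlabeled with 80 nM labeled, proceeds 60 min. IMAP beads stop the reaction; after 60 min equilibration, product is measured by fluorescence polarization.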

Chain of Active Human ERK2 (hERK2) (P28482 whole entry): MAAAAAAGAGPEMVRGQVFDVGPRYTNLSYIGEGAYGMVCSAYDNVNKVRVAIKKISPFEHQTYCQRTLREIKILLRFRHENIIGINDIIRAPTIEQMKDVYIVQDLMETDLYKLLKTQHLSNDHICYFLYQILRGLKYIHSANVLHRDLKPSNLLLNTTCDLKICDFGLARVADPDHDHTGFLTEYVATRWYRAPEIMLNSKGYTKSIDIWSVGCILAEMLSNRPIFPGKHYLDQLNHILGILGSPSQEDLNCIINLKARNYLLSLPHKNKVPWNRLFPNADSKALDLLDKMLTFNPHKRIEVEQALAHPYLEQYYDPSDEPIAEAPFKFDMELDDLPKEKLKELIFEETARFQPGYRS

Q: Which IC50 does the source give for `CC[C@@H](NC(=O)Nc1cc2[nH]nc(-c3ccnc(C)c3)c2cn1)c1ccc(Cl)cc1` [Example 414] here?
A: Its IC50 is 0.755 nM.

Q: Which IC50 does the source give for `COC[C@H](NC(=O)Nc1cc2[nH]nc(-c3ccnc(C)c3)c2cn1)c1ccccn1` [Example 415] here?
A: The IC50 was 20 nM.

Q: How did the IC50 turn out when `COC[C@@H](NC(=O)Nc1cc2[nH]nc(-c3ccnc(C)c3)c2cn1)c1ccccn1` [Example 416] was run?
A: The IC50 was 0.78 nM.

Q: With `Cc1cc(-c2n[nH]c3cc(NC(=O)NCc4scnc4C)ncc23)ccn1` [Example 418] as the compound, how does the IC50 read?
A: Its IC50 is 2.75 nM.

Q: How did the IC50 turn out when `Cc1cc(-c2n[nH]c3cc(NC(=O)NCc4cc[nH]n4)ncc23)ccn1` [Example 419] was run?
A: Its IC50 is 2.72 nM.

Q: How did the IC50 turn out when `Cc1cc(-c2n[nH]c3cc(NC(=O)NCc4cn[nH]c4)ncc23)ccn1` [Example 420] was run?
A: Its IC50 is 2.55 nM.

Q: Which IC50 does the source give for `Cc1cc(-c2n[nH]c3cc(NC(=O)NCc4ncn[nH]4)ncc23)ccn1` [Example 422] here?
A: Its IC50 is 5.42 nM.

Q: For `Cc1cc(-c2n[nH]c3cc(NC(=O)NCc4cnsc4)ncc23)ccn1` [Example 423], which IC50 is on record?
A: The IC50 was 0.594 nM.

Q: How did the IC50 turn out when `Cc1cc(-c2n[nH]c3cc(NC(=O)NCc4ncnn4C)ncc23)ccn1` [Example 424] was run?
A: The IC50 was 2.55 nM.

Q: Which IC50 does the source give for `Cc1cc(-c2n[nH]c3cc(NC(=O)NCc4cnsn4)ncc23)ccn1` [Example 425] here?
A: The IC50 was 0.323 nM.

Q: With `Cc1cc(-c2n[nH]c3cc(NC(=O)NCc4ncon4)ncc23)ccn1` [Example 426] as the compound, how does the IC50 read?
A: Its IC50 is 5.67 nM.

Q: With `Cc1cc(-c2n[nH]c3cc(NC(=O)NCc4ncc[nH]4)ncc23)ccn1` [Example 427] as the compound, how does the IC50 read?
A: Its IC50 is 1.36 nM.

Q: With `Cc1cc(-c2n[nH]c3cc(NC(=O)NCc4ccns4)ncc23)ccn1` [Example 429] as the compound, how does the IC50 read?
A: The IC50 was 1.12 nM.

Q: `Cc1cc(-c2n[nH]c3cc(NC(=O)NCc4c[nH]nn4)ncc23)ccn1` [Example 431] was tested. Which IC50 did it give?
A: Its IC50 is 2.52 nM.

Q: `Cc1cc(-c2n[nH]c3cc(NC(=O)NCc4cscn4)ncc23)ccn1` [Example 432] was tested. Which IC50 did it give?
A: The IC50 was 0.745 nM.

Q: Which IC50 does the source give for `Cc1cc(-c2n[nH]c3cc(NC(=O)NCc4ncco4)ncc23)ccn1` [Example 433] here?
A: The IC50 was 2.97 nM.

Q: `Cc1cc(-c2n[nH]c3cc(NC(=O)NCc4cnc(C)s4)ncc23)ccn1` [Example 434] was tested. Which IC50 did it give?
A: Its IC50 is 1.14 nM.

Q: Which IC50 does the source give for `Cc1cc(-c2n[nH]c3cc(NC(=O)NCc4ccno4)ncc23)ccn1` [Example 435] here?
A: Its IC50 is 1.08 nM.

Q: Which IC50 does the source give for `Cc1cc(-c2n[nH]c3cc(NC(=O)NCc4nccs4)ncc23)ccn1` [Example 436] here?
A: The IC50 was 2.14 nM.

Q: For `Cc1cc(-c2n[nH]c3cc(NC(=O)NCc4cnoc4)ncc23)ccn1` [Example 437], which IC50 is on record?
A: The IC50 was 1.95 nM.

Q: For `Cc1cc(-c2n[nH]c3cc(NC(=O)NCc4nncs4)ncc23)ccn1` [Example 438], which IC50 is on record?
A: The IC50 was 6.6 nM.

Q: For `Cc1cc(-c2n[nH]c3cc(NC(=O)NCc4ccccc4Cl)ncc23)ccn1` [Example 439], which IC50 is on record?
A: The IC50 was 1.3 nM.

Q: How did the IC50 turn out when `Cc1cc(-c2n[nH]c3cc(NC(=O)NCc4c(F)cccc4Cl)ncc23)ccn1` [Example 440] was run?
A: The IC50 was 0.469 nM.

Q: How did the IC50 turn out when `Cc1cc(-c2n[nH]c3cc(NC(=O)NCc4ccccc4OC(F)F)ncc23)ccn1` [Example 441] was run?
A: Its IC50 is 0.309 nM.

Q: For `Cc1cc(-c2n[nH]c3cc(NC(=O)NCc4ccccc4F)ncc23)ccn1` [Example 442], which IC50 is on record?
A: Its IC50 is 0.815 nM.

Q: With `Cc1cc(-c2n[nH]c3cc(NC(=O)NCc4ccc(Cl)cc4Cl)ncc23)ccn1` [Example 443] as the compound, how does the IC50 read?
A: Its IC50 is 11.8 nM.

Q: Which IC50 does the source give for `Cc1cc(-c2n[nH]c3cc(NC(=O)NCc4c(C)cccc4Cl)ncc23)ccn1` [Example 444] here?
A: Its IC50 is 1.12 nM.

Q: With `Cc1cc(-c2n[nH]c3cc(NC(=O)NCc4ccc(C#N)cc4)ncc23)ccn1` [Example 445] as the compound, how does the IC50 read?
A: Its IC50 is 3.73 nM.

Q: `Cc1cc(-c2n[nH]c3cc(NC(=O)NCc4cccnn4)ncc23)ccn1` [Example 446] was tested. Which IC50 did it give?
A: Its IC50 is 3.3 nM.

Q: `Cc1cc(-c2n[nH]c3cc(NC(=O)NCc4ncccc4F)ncc23)ccn1` [Example 447] was tested. Which IC50 did it give?
A: The IC50 was 2.62 nM.

Q: How did the IC50 turn out when `Cc1cc(-c2n[nH]c3cc(NC(=O)NCc4ncccc4Cl)ncc23)ccn1` [Example 448] was run?
A: The IC50 was 0.827 nM.

Q: How did the IC50 turn out when `Cc1cc(-c2n[nH]c3cc(NC(=O)NCc4ncc(F)cc4F)ncc23)ccn1` [Example 450] was run?
A: The IC50 was 1.91 nM.

Q: How did the IC50 turn out when `Cc1cc(-c2n[nH]c3cc(NC(=O)NCCOC(C)C)ncc23)ccn1` [Example 451] was run?
A: The IC50 was 2.14 nM.

Q: For `Cc1cc(-c2n[nH]c3cc(NC(=O)N[C@H](C(=O)O)C(C)C)ncc23)ccn1` [Example 452], which IC50 is on record?
A: The IC50 was 2240 nM.

Q: With `Cc1cc(-c2n[nH]c3cc(NC(=O)NCCOc4ccccc4)ncc23)ccn1` [Example 453] as the compound, how does the IC50 read?
A: Its IC50 is 1.62 nM.

Q: `Cc1cc(-c2n[nH]c3cc(NC(=O)N[C@@H](C)C(=O)O)ncc23)ccn1` [Example 454] was tested. Which IC50 did it give?
A: Its IC50 is 237 nM.

Q: How did the IC50 turn out when `COC(=O)[C@H](C)NC(=O)Nc1cc2[nH]nc(-c3ccnc(C)c3)c2cn1` [Example 455] was run?
A: The IC50 was 520 nM.

Q: Which IC50 does the source give for `Cc1cc(-c2n[nH]c3cc(NC(=O)N[C@H]4CCOC4=O)ncc23)ccn1` [Example 456] here?
A: The IC50 was 253 nM.

Q: How did the IC50 turn out when `COC(=O)C(NC(=O)Nc1cc2[nH]nc(-c3ccnc(C)c3)c2cn1)C(F)(F)F` (centres unmarked) [Example 457] was run?
A: The IC50 was 31.1 nM.

Q: Which IC50 does the source give for `Cc1cc(-c2n[nH]c3cc(NC(=O)NCC4CCCO4)ncc23)ccn1` (centres unmarked) [Example 458] here?
A: Its IC50 is 8.46 nM.

Q: How did the IC50 turn out when `Cc1cc(-c2n[nH]c3cc(NC(=O)NCC4COc5ccccc5O4)ncc23)ccn1` (centres unmarked) [Example 459] was run?
A: The IC50 was 2.74 nM.

Q: With `COC(=O)[C@@H](NC(=O)Nc1cc2[nH]nc(-c3ccnc(C)c3)c2cn1)C(C)C` [Example 460] as the compound, how does the IC50 read?
A: Its IC50 is 160 nM.

Q: For `COC(=O)[C@@H](C)NC(=O)Nc1cc2[nH]nc(-c3ccnc(C)c3)c2cn1` [Example 461], which IC50 is on record?
A: The IC50 was 31.2 nM.

Q: For `Cc1cc(-c2n[nH]c3cc(NC(=O)NCC(=O)O)ncc23)ccn1` [Example 462], which IC50 is on record?
A: The IC50 was 356 nM.

Q: How did the IC50 turn out when `Cc1cc(-c2n[nH]c3cc(NC(=O)NCC4(C)CCCO4)ncc23)ccn1` (centres unmarked) [Example 463] was run?
A: Its IC50 is 1.58 nM.

Q: With `Cc1cc(-c2n[nH]c3cc(NC(=O)NCC4COCCO4)ncc23)ccn1` (centres unmarked) [Example 464] as the compound, how does the IC50 read?
A: Its IC50 is 3.57 nM.

Q: Which IC50 does the source give for `Cc1cc(-c2n[nH]c3cc(NC(=O)NC4COC4)ncc23)ccn1` [Example 465] here?
A: Its IC50 is 320 nM.

Q: Which IC50 does the source give for `Cc1cc(-c2n[nH]c3cc(NC(=O)NCC4CNC(=O)O4)ncc23)ccn1` (centres unmarked) [Example 466] here?
A: Its IC50 is 2.81 nM.

Q: `Cc1cc(-c2n[nH]c3cc(NC(=O)NC4COc5ccccc5C4)ncc23)ccn1` (centres unmarked) [Example 467] was tested. Which IC50 did it give?
A: Its IC50 is 1.25 nM.

Q: `Cc1cc(-c2n[nH]c3cc(NC(=O)NC4CCCOC4)ncc23)ccn1` (centres unmarked) [Example 468] was tested. Which IC50 did it give?
A: Its IC50 is 8.62 nM.

Q: Which IC50 does the source give for `Cc1cc(-c2n[nH]c3cc(NC(=O)NCC4CCCCO4)ncc23)ccn1` (centres unmarked) [Example 469] here?
A: The IC50 was 1.21 nM.

Q: `Cc1cc(-c2n[nH]c3cc(NC(=O)NCc4cc(C)on4)ncc23)ccn1` [Example 470] was tested. Which IC50 did it give?
A: Its IC50 is 4.12 nM.

Q: How did the IC50 turn out when `CCn1cc(CNC(=O)Nc2cc3[nH]nc(-c4ccnc(C)c4)c3cn2)cn1` [Example 471] was run?
A: The IC50 was 10.2 nM.

Q: Which IC50 does the source give for `COc1cc(CNC(=O)Nc2cc3[nH]nc(-c4ccnc(C)c4)c3cn2)on1` [Example 472] here?
A: Its IC50 is 11.1 nM.

Q: With `Cc1cc(-c2n[nH]c3cc(NC(=O)NCc4nc(N)cs4)ncc23)ccn1` [Example 473] as the compound, how does the IC50 read?
A: Its IC50 is 2.69 nM.

Q: For `Cc1cc(-c2n[nH]c3cc(NC(=O)NCc4nnc(C)s4)ncc23)ccn1` [Example 474], which IC50 is on record?
A: The IC50 was 33.7 nM.

Q: For `Cc1cc(-c2n[nH]c3cc(NC(=O)NCc4ccsc4)ncc23)ccn1` [Example 475], which IC50 is on record?
A: The IC50 was 0.385 nM.

Q: How did the IC50 turn out when `Cc1cc(-c2n[nH]c3cc(NC(=O)NCc4ccsn4)ncc23)ccn1` [Example 476] was run?
A: The IC50 was 0.587 nM.

Q: Which IC50 does the source give for `Cc1cc(-c2n[nH]c3cc(NC(=O)NCc4nc(C)cs4)ncc23)ccn1` [Example 477] here?
A: Its IC50 is 2.61 nM.

Q: For `Cc1cc(-c2n[nH]c3cc(NC(=O)NCc4ccc(Cl)cn4)ncc23)ccn1` [Example 478], which IC50 is on record?
A: The IC50 was 6.01 nM.

Q: With `Cc1cc(-c2n[nH]c3cc(NC(=O)NCc4ccccn4)ncc23)ccn1` [Example 479] as the compound, how does the IC50 read?
A: The IC50 was 3.02 nM.

Q: With `Cc1cc(-c2n[nH]c3cc(NC(=O)NCc4ncccc4C)ncc23)ccn1` [Example 480] as the compound, how does the IC50 read?
A: Its IC50 is 1.22 nM.
